What all share (settings): Compound Concentration 10.0 uM, Hit No
In assay [1] the target is Endonuclease 8-like 1 (Homo sapiens) (UniProt Q96FI4).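 Note: fluorescence at 594 nm from quenched duplex DNA oligonucleotides released by NEIL1 cleavage and strand separation, reported as reduction of this enzyme activity.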
Description: Inhibition of NEIL1 by quantifying inhibition of NEIL1-mediated cleavage and dissociation of quenched duplex DNA oligonucleotides, measured as fluorescence at 594 nm.
Assay [2] addresses T1, Adenine DNA glycosylase (Homo sapiens) (UniProt Q9UIF7).
T1 sequence (whole entry): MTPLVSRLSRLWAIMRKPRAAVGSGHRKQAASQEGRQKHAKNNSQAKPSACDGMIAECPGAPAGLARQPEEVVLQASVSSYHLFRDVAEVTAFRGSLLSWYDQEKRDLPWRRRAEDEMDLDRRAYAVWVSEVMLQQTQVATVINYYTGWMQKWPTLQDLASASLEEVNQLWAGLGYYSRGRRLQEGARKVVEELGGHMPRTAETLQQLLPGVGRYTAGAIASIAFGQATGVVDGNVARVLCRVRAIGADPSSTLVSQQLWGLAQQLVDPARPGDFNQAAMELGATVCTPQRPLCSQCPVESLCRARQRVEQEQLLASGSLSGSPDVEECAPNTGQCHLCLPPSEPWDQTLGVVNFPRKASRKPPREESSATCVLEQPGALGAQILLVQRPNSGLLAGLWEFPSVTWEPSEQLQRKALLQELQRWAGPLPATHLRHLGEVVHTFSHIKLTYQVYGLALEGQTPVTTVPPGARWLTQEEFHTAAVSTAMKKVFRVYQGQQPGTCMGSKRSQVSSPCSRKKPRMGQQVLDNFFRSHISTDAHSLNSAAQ
Description: Inhibition of MUTYH by quantifying inhibition of MUTYH-mediated cleavage and dissociation of quenched duplex DNA oligonucleotides, measured as fluorescence at 594 nm. To generate a functional strand incision and increase turn-over this assay is coupled to APE1.

Assay [3] deals with T2, Single-strand selective monofunctional uracil DNA glycosylase (Homo sapiens) (UniProt Q53HV7).
T2 sequence (whole entry): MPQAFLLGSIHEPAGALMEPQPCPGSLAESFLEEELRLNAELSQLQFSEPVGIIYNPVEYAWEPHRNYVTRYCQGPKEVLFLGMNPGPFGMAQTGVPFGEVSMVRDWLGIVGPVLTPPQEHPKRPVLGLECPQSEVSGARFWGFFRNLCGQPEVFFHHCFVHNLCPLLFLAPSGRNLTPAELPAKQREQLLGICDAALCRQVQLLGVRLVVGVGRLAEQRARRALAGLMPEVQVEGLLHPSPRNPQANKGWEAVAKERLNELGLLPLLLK
Description: Inhibition of SMUG1 by quantifying inhibition of SMUG1-mediated cleavage and dissociation of quenched duplex DNA oligonucleotides, measured as fluorescence at 594 nm. To generate a functional strand incision and increase turn-over this assay is coupled to APE1.

Assay [4] deals with G/T mismatch-specific thymine DNA glycosylase (Homo sapiens) (UniProt Q13569).
Description: Inhibition of TDG by quantifying inhibition of TDG-mediated cleavage and dissociation of quenched duplex DNA oligonucleotides, measured as fluorescence at 594 nm. To generate a functional strand incision and increase turn-over this assay is coupled to APE1.
Assay [5] addresses DNA-3-methyladenine glycosylase (Homo sapiens) (UniProt P29372).
Description: Inhibition of MPG by quantifying inhibition of MPG-mediated cleavage and dissociation of quenched duplex DNA oligonucleotides, measured as fluorescence at 594 nm. To generate a functional strand incision and increase turn-over this assay is coupled to APE1.
Assay [6] has as its target N-glycosylase/DNA lyase (Homo sapiens) (UniProt O15527).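 Note: OGG1 cleavage of a quenched duplex DNA oligonucleotide, coupled to APE1 for strand incision, read as fluorescence at 594 nm.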
Description: Inhibition of OGG1 by quantifying inhibition of OGG1-mediated cleavage and dissociation of quenched duplex DNA oligonucleotides, measured as fluorescence at 594 nm. To generate a functional strand incision and increase turn-over this assay is coupled to APE1.
The target of assay [7] is T3, Endonuclease 8-like 2 (Homo sapiens) (UniProt Q969S2).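 Note: fluorescence at 594 nm reports NEIL2 cutting and release of a quenched double-stranded DNA oligo substrate, reduced signal read as inhibition.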
T3 sequence (whole entry): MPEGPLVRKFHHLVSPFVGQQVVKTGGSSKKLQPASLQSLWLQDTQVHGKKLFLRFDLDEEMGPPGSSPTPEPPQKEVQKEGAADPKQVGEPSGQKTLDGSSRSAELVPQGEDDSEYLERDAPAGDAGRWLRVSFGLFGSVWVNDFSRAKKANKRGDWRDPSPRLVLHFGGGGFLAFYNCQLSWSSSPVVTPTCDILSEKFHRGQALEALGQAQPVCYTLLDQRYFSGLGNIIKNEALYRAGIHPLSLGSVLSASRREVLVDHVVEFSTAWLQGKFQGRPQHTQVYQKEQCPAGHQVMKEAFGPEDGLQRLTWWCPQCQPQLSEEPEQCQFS
Description: Inhibition of NEIL2 by quantifying inhibition of NEIL2-mediated cleavage and dissociation of quenched duplex DNA oligonucleotides, measured as fluorescence at 594 nm.

For assay [8], the target named is Uracil-DNA glycosylase (Homo sapiens) (UniProt P13051).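 Note: UNG excision on a quenched double-stranded DNA oligo probe, with APE1 added for strand incision and turnover, read as fluorescence at 594 nm as strands separate.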
Description: Inhibition of UNG by quantifying inhibition of UNG-mediated cleavage and dissociation of quenched duplex DNA oligonucleotides, measured as fluorescence at 594 nm. To generate a functional strand incision and increase turn-over this assay is coupled to APE1.
Assay [9] addresses Methyl-CpG-binding domain protein 4 (Homo sapiens) (UniProt O95243).
Description: Inhibition of MBD4 by quantifying inhibition of MBD4-mediated cleavage and dissociation of quenched duplex DNA oligonucleotides, measured as fluorescence at 594 nm. To generate a functional strand incision and increase turn-over this assay is coupled to APE1.
In assay [10] the target is T4, Endonuclease III-like protein 1 (Homo sapiens) (UniProt P78549).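 Note: enzyme assay tracking NTHL1 cutting and release of a quenched double-stranded DNA oligo substrate, read as fluorescence at 594 nm.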
T4 sequence (whole entry): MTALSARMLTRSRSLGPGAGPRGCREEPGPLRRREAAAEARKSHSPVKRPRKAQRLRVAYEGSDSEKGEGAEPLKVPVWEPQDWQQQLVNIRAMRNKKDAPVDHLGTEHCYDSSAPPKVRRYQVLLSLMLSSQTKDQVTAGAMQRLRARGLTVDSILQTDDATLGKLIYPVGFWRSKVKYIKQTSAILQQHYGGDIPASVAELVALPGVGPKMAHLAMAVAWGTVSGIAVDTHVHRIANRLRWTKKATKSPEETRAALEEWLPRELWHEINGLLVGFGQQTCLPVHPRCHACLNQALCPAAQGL
Description: Inhibition of NTHL1 by quantifying inhibition of NTHL1-mediated cleavage and dissociation of quenched duplex DNA oligonucleotides, measured as fluorescence at 594 nm.

The values that follow come from ChEMBL document CHEMBL5665443, “Enzyme Inhibitor Single Concentration assay results for EUbOPEN Chemogenomics Library” (2024).

Molecules are shown by their SMILES. Where “and” joins values, the source holds several entries; their conditions need not be identical. Identical values can stand only once.

Chain of G/T mismatch-specific thymine DNA glycosylase (Homo sapiens) (Q13569 whole entry): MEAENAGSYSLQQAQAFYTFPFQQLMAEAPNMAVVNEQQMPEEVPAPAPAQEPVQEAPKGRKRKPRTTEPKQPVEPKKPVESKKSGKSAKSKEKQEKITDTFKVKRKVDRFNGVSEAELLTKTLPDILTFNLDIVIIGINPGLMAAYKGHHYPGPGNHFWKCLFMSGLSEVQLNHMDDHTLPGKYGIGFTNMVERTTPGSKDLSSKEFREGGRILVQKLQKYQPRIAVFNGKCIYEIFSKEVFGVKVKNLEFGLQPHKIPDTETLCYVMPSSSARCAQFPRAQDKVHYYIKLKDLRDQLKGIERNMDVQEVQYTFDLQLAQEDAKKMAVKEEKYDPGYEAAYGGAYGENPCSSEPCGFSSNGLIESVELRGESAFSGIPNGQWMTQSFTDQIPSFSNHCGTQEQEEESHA
Chain of Endonuclease 8-like 1 (Homo sapiens) (Q96FI4 whole entry): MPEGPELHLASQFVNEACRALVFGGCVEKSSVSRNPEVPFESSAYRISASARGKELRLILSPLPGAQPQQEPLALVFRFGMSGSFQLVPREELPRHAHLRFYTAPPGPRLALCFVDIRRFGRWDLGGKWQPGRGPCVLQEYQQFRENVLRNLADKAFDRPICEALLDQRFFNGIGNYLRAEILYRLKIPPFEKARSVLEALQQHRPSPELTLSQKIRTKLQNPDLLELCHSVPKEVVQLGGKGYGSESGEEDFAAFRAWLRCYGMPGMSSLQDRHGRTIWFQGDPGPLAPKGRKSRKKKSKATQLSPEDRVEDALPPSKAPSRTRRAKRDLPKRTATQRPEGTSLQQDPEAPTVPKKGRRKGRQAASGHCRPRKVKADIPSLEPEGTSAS
Chain of N-glycosylase/DNA lyase (Homo sapiens) (O15527 whole entry): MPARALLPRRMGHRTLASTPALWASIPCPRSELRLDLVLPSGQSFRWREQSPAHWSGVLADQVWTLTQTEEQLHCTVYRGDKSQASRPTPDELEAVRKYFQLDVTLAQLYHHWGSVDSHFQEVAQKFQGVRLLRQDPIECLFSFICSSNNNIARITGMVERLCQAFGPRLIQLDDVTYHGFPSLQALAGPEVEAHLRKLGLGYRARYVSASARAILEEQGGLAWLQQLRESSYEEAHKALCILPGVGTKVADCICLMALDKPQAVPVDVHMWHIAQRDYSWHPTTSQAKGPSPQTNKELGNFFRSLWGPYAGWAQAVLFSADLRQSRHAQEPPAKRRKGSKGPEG
Chain of Uracil-DNA glycosylase (Homo sapiens) (P13051 whole entry, the tested form may be a part): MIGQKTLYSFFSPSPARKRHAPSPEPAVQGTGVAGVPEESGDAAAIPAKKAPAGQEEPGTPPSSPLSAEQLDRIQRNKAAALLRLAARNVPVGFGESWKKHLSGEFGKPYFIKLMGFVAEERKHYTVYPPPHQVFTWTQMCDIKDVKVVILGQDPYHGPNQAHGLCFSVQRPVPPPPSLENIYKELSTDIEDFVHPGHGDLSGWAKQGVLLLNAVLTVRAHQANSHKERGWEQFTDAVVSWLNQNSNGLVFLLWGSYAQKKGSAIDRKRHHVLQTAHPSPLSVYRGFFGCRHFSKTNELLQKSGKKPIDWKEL
Chain of Methyl-CpG-binding domain protein 4 (Homo sapiens) (O95243 whole entry, the tested form may be a part): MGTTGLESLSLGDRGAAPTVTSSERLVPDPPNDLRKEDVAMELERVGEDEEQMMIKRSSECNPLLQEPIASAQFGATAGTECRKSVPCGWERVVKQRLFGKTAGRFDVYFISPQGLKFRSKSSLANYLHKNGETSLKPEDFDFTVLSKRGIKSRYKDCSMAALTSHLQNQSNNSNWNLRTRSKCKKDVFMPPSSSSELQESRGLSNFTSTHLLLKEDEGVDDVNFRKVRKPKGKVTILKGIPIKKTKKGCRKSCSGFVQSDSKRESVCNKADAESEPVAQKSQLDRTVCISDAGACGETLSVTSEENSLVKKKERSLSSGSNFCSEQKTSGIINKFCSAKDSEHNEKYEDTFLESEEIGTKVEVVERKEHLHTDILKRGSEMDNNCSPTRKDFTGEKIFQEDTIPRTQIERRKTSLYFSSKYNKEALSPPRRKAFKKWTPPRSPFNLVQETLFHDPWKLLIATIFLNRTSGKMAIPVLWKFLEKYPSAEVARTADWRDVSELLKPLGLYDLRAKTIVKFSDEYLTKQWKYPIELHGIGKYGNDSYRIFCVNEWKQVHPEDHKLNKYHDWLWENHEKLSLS
Chain of DNA-3-methyladenine glycosylase (Homo sapiens) (P29372 whole entry): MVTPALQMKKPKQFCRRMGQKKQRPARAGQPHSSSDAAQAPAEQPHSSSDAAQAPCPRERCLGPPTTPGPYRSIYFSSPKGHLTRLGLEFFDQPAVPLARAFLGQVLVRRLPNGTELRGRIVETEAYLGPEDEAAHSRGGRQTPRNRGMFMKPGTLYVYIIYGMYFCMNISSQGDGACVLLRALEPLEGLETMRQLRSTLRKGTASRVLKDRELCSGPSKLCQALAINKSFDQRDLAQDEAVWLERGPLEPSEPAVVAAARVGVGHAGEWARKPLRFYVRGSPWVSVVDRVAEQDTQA

On to `Nc1nc(NCCc2ccc(O)cc2)nc2nc(-c3ccco3)nn12`, for which the inhibition in assay [1] is -1.69%; in assay [2], 18.6%; in assay [3], -6.72%; in [4], -0.119%; in assay [5] it was -1.9%; in [6], -7.81%. The inhibition in assay [7] was 6%.
Turning to `CCCn1c(=O)c2[nH]c(-c3ccc(OCC(=O)Nc4ccc(C#N)cc4)cc3)nc2n(CCC)c1=O`, the inhibition is -6.42% in assay [8]; -3.95% in assay [2]; 1.64% in assay [4]; -6.3% in assay [5]; -7.63% in [6].
On to `Cc1onc(-c2ccccc2Cl)c1C(=O)N(C)c1ccc(Cl)cc1`, for which the inhibition is -2.13% in [1]; -8.91% in [8]; 15.8% in assay [2]; 3.65% in assay [3]; 12.4% in assay [4]; -3.37% in assay [5]. Also, the inhibition was -3.42% in assay [6] and 7% in [7].
Regarding `COCCCN1CCC(NC(=O)c2cc(Cl)c(N)c3c2OCC3)CC1`, the inhibition in assay [1] was -6.73%; in assay [2], 17.3%; in assay [4], 2.17%; in assay [5] it was 8.09%; in [6], -3.13%; in [7], -0.983%.
On to `CN1CCN2c3ncccc3Cc3ccccc3C2C1` (configuration not stated), for which the inhibition in assay [1] is 3.95%; in [2], -2.92%; in [4] it was -8.16%; in [5] it was -7.53%; in [6], -6.38%; in [7], 10%.
With `CCC(=N\O)/C(C)=C/c1ccc(F)cc1`, the inhibition in assay [1] was 0.164% and -0.139%; in assay [8], -0.0369% and -2.61%; in assay [2] it was -8.19% and -8.38%; in assay [3], 15.6% and 4.45%; in assay [5], 12.6%; in assay [6], 8.29% and 3.66%. Further, in assay [7], the inhibition was -6.1% and 1.43%.
Turning to `CCc1nc2c(C)cc(C)nc2[nH]1`, the inhibition in [1] was 2.46%; in assay [2], -7.66%; in [4] it was -2.03%; in [5], 5.35%; in assay [7], 6.75%.
As for `Cc1cccc(NC(=O)N[C@@H]2N=C(c3ccccc3)c3ccccc3N(C)C2=O)c1`, the inhibition in assay [2] is 10.5%; in assay [3] it was -5.61%; in [4], 12.3%; in assay [5] it was 17%; in assay [6], -6.8%; in assay [7], -1.73%.
`CC(C)Cc1ccc([C@@H](C)C(=O)NS(C)(=O)=O)cc1`: the inhibition is 1.28% in assay [1]; -7.7% in assay [8]; 19% in [2]; 0.354% in [3]; 3.68% in assay [4]; -0.553% in assay [5]. For the same molecule, the inhibition in assay [6] is -2.17%; in [7] it was -1.98%.
As to `CC(C)NCC(O)COc1cccc2[nH]ccc12` (configuration not stated), the inhibition is 2.76% in assay [1]; -6.49% in assay [8]; -5.48% in [2]; 3.97% in assay [4]; 6.08% in assay [5]; -5.87% in assay [6]. In [7], the inhibition turned out to be 4.01%.
Consider `N[C@H](C(=O)O)c1ccc(C(=O)O)c(C(=O)O)c1`, for which the inhibition in assay [1] is -4.06%; in assay [2] it was 10.4%; in assay [3] it was -4.49%; in assay [4], 4.6%; in assay [5], -6.3%; in assay [6], -7.96%. For the same molecule, the inhibition in assay [7] stood at 5.76%.
With `Clc1cccc(-n2nnnc2NCc2ccccc2Oc2ccccn2)c1Cl`, the inhibition in assay [1] is 4.75%; in assay [9], 4.1%; in assay [8] it was -1.01%; in assay [3] it was 6.2%; in assay [4], 0.87%; in assay [5] it was 12.9%. The inhibition in assay [10] is 4.7%; in [6] it was -2.45%; in [7] it was -1.88%.
Turning to `Cc1nc(C(=O)N2CCC[C@H]2Cc2nnc(-c3ccccc3)o2)c(-c2ccccc2F)s1`, the inhibition is 2.46% in assay [1]; -9.49% in assay [9]; -9.58% in [8]; -4.93% in assay [3]; 15% in assay [4]; -2.02% in assay [5]. Further, the results for the inhibition in assay [10], in assay [6] and in assay [7] were 4.86%, -0.535% and -1.23%, respectively.
For `CC(C)(C)c1ccc(S(=O)(=O)Nc2ccc(Cl)cc2C(=O)c2cc[n+]([O-])cc2)cc1`, the inhibition is 3.35% in assay [1]; -4.97% in assay [2]; -0.448% in [4]; 1.3% in assay [5]; 1.79% in assay [6]; -0.483% in [7].
Consider `Cn1c(=O)n(CCCO)c(=O)c2c1nc(Oc1cccc(OC(F)(F)F)c1)n2Cc1ccc(Cl)cc1`, for which the inhibition in assay [1] was -2.66%; in assay [9], 26.6%; in assay [8], -4.54%; in assay [3], 10.3%; in assay [4] it was 19.9%; in assay [5] it was 13.8%. The inhibition in assay [10] is 8.82%; in [6], -1.67%; in assay [7], -7.23%.
With `CCOC(=O)c1ncn2c1CN(C)C(=O)c1cc(F)ccc1-2`, the inhibition in [1] is 0.389%; in [9] it was -4.21%; in assay [8] it was -9.3%; in assay [3], -0.518%; in assay [4] it was 9.02%; in [5], -3.91%. In addition, the inhibition in assay [10] was -6.87%; in assay [6], 0.398%; in assay [7], -1.48%.
Take `c1ccc(NCc2ccc(CNc3ccccn3)cc2)nc1`: the inhibition in assay [1] is 3.5%; in assay [2] it was -5.87%; in assay [4] it was 13.4%; in assay [5], -3.14%; in assay [6], -3.65%; in [7], -4.48%.
For `Clc1cccc(Cl)c1NC1=NCCN1`, the inhibition in assay [1] is -1.69%; in assay [2], 14.7%; in assay [4] it was 0.825%; in [5], -5.72%; in assay [6], -5.49%; in assay [7] it was 1.76%.
Turning to `O=c1ccn([C@@H]2O[C@H](COP(=O)(O)OP(=O)(O)O)[C@@H](O)[C@H]2O)c(=O)[nH]1`, the inhibition in assay [1] is -1.39%; in [8] it was -4.06%; in [2], 23.4%; in [4], 19.1%; in assay [5], -2.06%; in assay [6] it was -4.12%. For the same molecule, in [7], the inhibition worked out at 2.51%.
As for `CCN(CC)S(=O)(=O)Nc1cccc(-c2ccc3c(NC(=O)C4CC4)n[nH]c3c2)c1`, the inhibition in assay [1] was 9.38%; in assay [9] it was -2.59%; in assay [8], 2.23%; in assay [3], 11.9%; in assay [4] it was 45.5%; in assay [5], 3.86%. Also, the results for the inhibition in assay [10], in [6] and in assay [7] were 9.15%, -4.92% and 5.35%, respectively.

Broadly, the inhibition is the change of the read-out against control, counted positive when it falls.
